Experimental findings from patent US20250145609A1, “3-SUBSTITUTED PYRIDAZINE COMPOUNDS AS SMARCA2 AND/OR SMARCA4 DEGRADERS” (Aurigene Oncology Limited, priority 2022, published 2025) are described below.

What all share (type): cell-based
The target of assay [1] is T1, SMARCA4 (Homo sapiens, UniProt P51532).
T1 construct: endogenous in cells; host or cells: VCaP (ATCC CRL-2876)
The assay is described as follows: SMARCA4 degradation in VCaP cells by Western blot. To be noted: VCaP, 16 h, at 100 nM. Summed up:
(§1)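 VCaP cells in DMEM treated 16 h with compound at a single 100 nM dose (DMSO ≤0.3%). Lysates were probed by Western blot for SMARCA2 or SMARCA4, with beta-tubulin as loading control. Percent degradation was calculated from band signals.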
On the technique in general: A western blot detects proteins with antibodies after separation by electrophoresis.

Assay [2] addresses T2, SMARCA2 (Homo sapiens, UniProt P51531).
T2 construct: endogenous in cells; host or cells: VCaP (ATCC CRL-2876)
The assay can be described thus: SMARCA2 degradation in VCaP cells by Western blot. To be noted: at 100 nM, 16 hours. Summed up:
as §1

Assay [3] has as its system VCaP cells. The assay can be described thus: Anti proliferative activity in VCaP cell line by CellTiter Glo assay. Particulars: Homo sapiens, VCaP, 192 h, 8 days incubation, CellTiter Glo luminescence. Here is the method: Example-P1: Determination of Anti Proliferative Activity of Compounds in Cell Lines VCaP by Cell Titer Glo©(Promega) Assay
VCaP (ATCC CRL-2876) cells were seeded in 96 well plate flat black clear bottom plates (Corning, Cat. No 3904) using complete DMEM Medium. Next day, compounds listed in the present invention were added to cells from 10 mM stocks made in DMSO (Sigma Cat no. D2650). Each concentration of compound was tested in triplicate with DMSO concentration at a final percentage not exceeding 0.3 in the cells. After the incubation of VCaP cells with compound for 8 days assay was terminated using 50 μl of CellTiter Glo© reagent (Promega, Cat. no G7572). CellTiter-Glo® Luminescent reagent determines the number of viable cells based on quantitation of ATP present which is an indicator of cell number and metabolic activity. Luminescence readings were taken in Victor-3 instrument. Percent inhibition of proliferation was calculated using formula, % inhibition=100−(luminescence value of test/luminescence value of DMSO control)*100. DMSO control (0%)=Cells in complete media with DMSO; blank=Media alone containing DMSO. EC50 was calculated using graph pad prism software.
Herein the group “A” refers to EC50 values lower than l0 nM, group “B” refers to EC50 values between l0 nM-100 nM (both inclusive) and group “C” refers to EC50 values greater than 100 nM.
(Cellular ATP, detected with luciferase, serves as a proxy for viable cell number.)

Some results are limits rather than exact numbers.

T2 sequence (P51531 whole entry): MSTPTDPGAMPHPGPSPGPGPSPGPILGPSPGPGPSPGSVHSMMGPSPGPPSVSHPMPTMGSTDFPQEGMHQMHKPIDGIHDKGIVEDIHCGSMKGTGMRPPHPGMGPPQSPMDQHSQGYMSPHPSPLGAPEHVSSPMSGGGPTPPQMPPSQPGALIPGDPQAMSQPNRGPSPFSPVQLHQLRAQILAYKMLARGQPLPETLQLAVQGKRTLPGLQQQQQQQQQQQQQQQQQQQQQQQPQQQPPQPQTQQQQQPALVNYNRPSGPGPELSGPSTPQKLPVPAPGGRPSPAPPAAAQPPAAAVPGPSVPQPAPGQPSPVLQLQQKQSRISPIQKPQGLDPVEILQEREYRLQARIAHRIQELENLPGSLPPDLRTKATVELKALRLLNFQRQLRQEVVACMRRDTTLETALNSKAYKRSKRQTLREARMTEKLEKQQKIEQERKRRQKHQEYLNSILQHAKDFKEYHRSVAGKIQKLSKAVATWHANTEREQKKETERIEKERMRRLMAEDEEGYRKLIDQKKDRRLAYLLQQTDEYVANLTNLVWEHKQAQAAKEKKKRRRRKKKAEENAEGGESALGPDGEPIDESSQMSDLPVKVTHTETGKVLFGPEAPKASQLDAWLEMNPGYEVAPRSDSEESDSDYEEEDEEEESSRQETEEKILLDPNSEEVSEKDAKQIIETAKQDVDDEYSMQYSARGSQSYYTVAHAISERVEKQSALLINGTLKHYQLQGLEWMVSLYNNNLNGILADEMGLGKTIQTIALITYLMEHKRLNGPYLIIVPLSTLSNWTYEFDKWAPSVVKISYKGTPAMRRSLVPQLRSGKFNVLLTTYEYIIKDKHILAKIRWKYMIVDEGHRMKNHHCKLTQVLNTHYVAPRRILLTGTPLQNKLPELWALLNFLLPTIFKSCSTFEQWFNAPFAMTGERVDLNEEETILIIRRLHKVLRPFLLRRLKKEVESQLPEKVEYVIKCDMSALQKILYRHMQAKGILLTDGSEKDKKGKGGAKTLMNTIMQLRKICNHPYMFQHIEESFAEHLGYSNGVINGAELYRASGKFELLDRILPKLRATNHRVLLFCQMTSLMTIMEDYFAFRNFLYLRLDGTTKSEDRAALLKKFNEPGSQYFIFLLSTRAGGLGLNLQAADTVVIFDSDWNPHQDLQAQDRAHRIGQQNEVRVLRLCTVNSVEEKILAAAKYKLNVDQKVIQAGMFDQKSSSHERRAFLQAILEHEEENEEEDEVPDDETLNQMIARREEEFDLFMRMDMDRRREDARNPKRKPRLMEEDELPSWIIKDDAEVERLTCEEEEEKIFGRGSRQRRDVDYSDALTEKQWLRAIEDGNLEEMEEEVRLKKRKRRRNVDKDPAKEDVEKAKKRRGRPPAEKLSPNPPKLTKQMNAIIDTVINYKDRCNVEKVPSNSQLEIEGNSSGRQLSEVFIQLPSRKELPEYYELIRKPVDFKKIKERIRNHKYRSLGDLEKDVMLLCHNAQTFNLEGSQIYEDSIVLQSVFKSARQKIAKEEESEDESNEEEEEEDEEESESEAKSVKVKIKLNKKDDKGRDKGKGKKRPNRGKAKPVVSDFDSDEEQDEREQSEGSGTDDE
T1 sequence (P51532 whole entry): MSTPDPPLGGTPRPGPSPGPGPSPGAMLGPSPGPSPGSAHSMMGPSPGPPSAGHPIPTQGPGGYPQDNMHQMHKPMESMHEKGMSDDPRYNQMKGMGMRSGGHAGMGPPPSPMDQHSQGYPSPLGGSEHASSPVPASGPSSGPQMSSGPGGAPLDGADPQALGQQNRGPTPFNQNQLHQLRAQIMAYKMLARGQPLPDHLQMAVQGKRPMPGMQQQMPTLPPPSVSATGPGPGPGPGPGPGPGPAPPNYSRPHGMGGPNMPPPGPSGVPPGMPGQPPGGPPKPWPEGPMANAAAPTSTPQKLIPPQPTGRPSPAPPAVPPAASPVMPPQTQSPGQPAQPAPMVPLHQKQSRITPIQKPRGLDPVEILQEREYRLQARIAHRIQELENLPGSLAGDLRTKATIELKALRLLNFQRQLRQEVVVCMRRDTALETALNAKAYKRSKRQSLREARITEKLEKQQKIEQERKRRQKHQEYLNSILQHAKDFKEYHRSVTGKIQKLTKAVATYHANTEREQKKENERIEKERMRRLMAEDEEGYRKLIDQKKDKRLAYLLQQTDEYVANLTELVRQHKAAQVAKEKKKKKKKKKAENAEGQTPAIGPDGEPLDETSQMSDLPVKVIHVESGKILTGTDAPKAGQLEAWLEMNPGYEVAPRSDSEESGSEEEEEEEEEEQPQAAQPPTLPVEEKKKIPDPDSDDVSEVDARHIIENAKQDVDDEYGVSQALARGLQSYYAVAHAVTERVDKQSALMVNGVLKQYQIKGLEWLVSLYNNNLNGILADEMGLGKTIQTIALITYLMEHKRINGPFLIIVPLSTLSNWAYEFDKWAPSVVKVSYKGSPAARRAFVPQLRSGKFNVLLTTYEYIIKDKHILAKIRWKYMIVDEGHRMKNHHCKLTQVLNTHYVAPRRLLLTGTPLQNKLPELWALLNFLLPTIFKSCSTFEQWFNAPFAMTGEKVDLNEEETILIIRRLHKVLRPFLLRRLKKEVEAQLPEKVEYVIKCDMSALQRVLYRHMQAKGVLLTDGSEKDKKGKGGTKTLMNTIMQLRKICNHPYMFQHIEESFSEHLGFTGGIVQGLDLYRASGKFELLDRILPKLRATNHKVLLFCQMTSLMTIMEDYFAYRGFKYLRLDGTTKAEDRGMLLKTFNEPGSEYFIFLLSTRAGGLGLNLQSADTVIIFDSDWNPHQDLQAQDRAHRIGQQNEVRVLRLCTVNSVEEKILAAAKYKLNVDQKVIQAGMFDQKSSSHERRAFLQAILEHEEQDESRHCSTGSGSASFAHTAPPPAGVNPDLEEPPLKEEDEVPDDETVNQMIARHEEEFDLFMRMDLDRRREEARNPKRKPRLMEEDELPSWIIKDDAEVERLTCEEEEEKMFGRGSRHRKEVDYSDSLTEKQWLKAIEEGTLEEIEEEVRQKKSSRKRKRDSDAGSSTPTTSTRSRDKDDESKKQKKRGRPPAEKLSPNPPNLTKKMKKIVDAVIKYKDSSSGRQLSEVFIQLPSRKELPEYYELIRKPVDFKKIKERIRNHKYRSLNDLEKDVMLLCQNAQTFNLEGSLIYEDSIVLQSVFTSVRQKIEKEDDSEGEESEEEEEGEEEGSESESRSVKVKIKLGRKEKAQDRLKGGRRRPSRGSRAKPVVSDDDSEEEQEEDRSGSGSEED

For orientation: EC50 means the concentration that produces a half-maximal response. Low values mean higher potency in that assay, high ones lower potency in that assay. As to `Cc1ncsc1-c1ccc([C@H](C)NC(=O)[C@@H]2C[C@@H](O)CN2C(=O)[C@@H](NC(=O)CCCC#Cc2ccc(-c3cc(-c4ccccc4O)nnc3N)cc2)C(C)(C)C)cc1` [Compound 19, (2S,4R)-1-((S)-2-(6-(4-(3-amino-6-(2-hydroxyphenyl)pyridazin-4-yl)phenyl)hex-5-ynamido)-3,3-dimethylbutanoyl)-4-hydroxy-N—((S)-1-(4-(4-methylthiazol-5-yl)phenyl)ethyl)pyrrolidine-2-carboxamide], the Percent SMARCA4 degradation at 0.1 µM in assay [1] was found to be 96%. The “Percent degradation SMARCA2” value in assay [2] is reported as 96%. In assay [3], this compound registered a 50% effective concentration (EC50) of less than 10 nM.
As to `Cc1ncsc1-c1ccc([C@H](C)NC(=O)[C@@H]2C[C@@H](O)CN2C(=O)[C@@H](NC(=O)CN2CCN(c3ccc(-c4cc(-c5ccccc5O)nnc4N)c(F)c3)CC2)C(C)(C)C)cc1` [Compound 28, (2S,4R)-1-((S)-2-(2-(4-(4-(3-amino-6-(2-hydroxyphenyl)pyridazin-4-yl)-3-fluorophenyl)piperazin-1-yl)acetamido)-3,3-dimethylbutanoyl)-4-hydroxy-N—((S)-1-(4-(4-methylthiazol-5-yl)phenyl)ethyl)pyrrolidine-2-carboxamide], in assay [1], the Percent SMARCA4 degradation at 0.1 µM amounted to 67%. Moreover, in assay [2], the “Percent degradation SMARCA2” value turned out to be 96%. For the same compound, in assay [3], the EC50 was in the range of 10 to 100 nM.
The matching figures for `Cc1ncsc1-c1ccc([C@H](C)NC(=O)[C@@H]2C[C@@H](O)CN2C(=O)[C@@H](NC(=O)CCCCOc2ccc(-c3cc(-c4ccccc4O)nnc3N)cc2)C(C)(C)C)cc1` [Compound 58, (2S,4R)-1-((S)-2-(5-(4-(3-amino-6-(2-hydroxyphenyl)pyridazin-4-yl)phenoxy)pentanamido)-3,3-dimethylbutanoyl)-4-hydroxy-N—((S)-1-(4-(4-methylthiazol-5-yl)phenyl)ethyl)pyrrolidine-2-carboxamide]: 90%, 99% and 10 to 100 nM.
The matching figures for `Cc1ncsc1-c1ccc([C@H](C)NC(=O)[C@@H]2C[C@@H](O)CN2C(=O)[C@@H](NC(=O)CC#Cc2ccc(-c3cc(-c4ccccc4O)nnc3N)cc2)C(C)(C)C)cc1` [Compound 21, (2S,4R)-1-((S)-2-(4-(4-(3-amino-6-(2-hydroxyphenyl)pyridazin-4-yl)phenyl)but-3-ynamido)-3,3-dimethylbutanoyl)-4-hydroxy-N-((S)-1-(4-(4-methylthiazol-5-yl)phenyl)ethyl)pyrrolidine-2-carboxamide]: 71%, 97% and more than 100 nM.
The corresponding values for `Cc1ncsc1-c1ccc([C@H](C)NC(=O)[C@@H]2C[C@@H](O)CN2C(=O)[C@@H](c2cc(-c3ccc(-c4cc(-c5ccccc5O)nnc4N)cc3)no2)C(C)C)cc1` [Compound 6, (2S,4R)-1-((R)-2-(3-(4-(3-amino-6-(2-hydroxyphenyl)pyridazin-4-yl)phenyl)isoxazol-5-yl)-3-methylbutanoyl)-4-hydroxy-N—((S)-1-(4-(4-methylthiazol-5-yl)phenyl)ethyl)pyrrolidine-2-carboxamide] are 85%, 100% and 10 to 100 nM.
In turn, `Cc1ncsc1-c1ccc([C@H](C)NC(=O)[C@@H]2C[C@@H](O)CN2C(=O)C(c2cc(OCCOc3ccc(-c4cc(-c5ccccc5O)nnc4N)cc3)no2)C(C)C)cc1` (stereo partly drawn) [Compound 24, (2S,4R)-1-(2-(3-(2-(4-(3-amino-6-(2-hydroxyphenyl)pyridazin-4-yl)phenoxy)ethoxy)isoxazol-5-yl)-3-methylbutanoyl)-4-hydroxy-N—((S)-1-(4-(4-methylthiazol-5-yl)phenyl)ethyl)pyrrolidine-2-carboxamide] yielded a Percent SMARCA4 degradation at 0.1 µM in assay [1] of 96%. Besides, in assay [2], the “Percent degradation SMARCA2” value was 95%. For the same compound, the concentration giving a half-maximal response (EC50) in assay [3] is less than 10 nM.
The corresponding values for `Cc1ncsc1-c1ccc([C@H](C)NC(=O)[C@@H]2C[C@@H](O)CN2C(=O)[C@@H](NC(=O)CN2CCC(c3ccc(-c4cc(-c5ccccc5O)nnc4N)cc3)CC2)C(C)(C)C)cc1` [Compound 29, (2S,4R)-1-((S)-2-(2-(4-(4-(3-amino-6-(2-hydroxyphenyl)pyridazin-4-yl)phenyl)piperidin-1-yl)acetamido)-3,3-dimethylbutanoyl)-4-hydroxy-N—((S)-1-(4-(4-methylthiazol-5-yl)phenyl)ethyl)pyrrolidine-2-carboxamide] are 95%, 95% and less than 10 nM.
On to `Cc1ncsc1-c1ccc([C@H](C)NC(=O)[C@@H]2C[C@@H](O)CN2C(=O)[C@@H](NC(=O)C2CCC(c3ccc(-c4cc(-c5ccccc5O)nnc4N)cc3)CC2)C(C)(C)C)cc1` (mixture of isomers) [Compound 40, (2S,4R)-1-((S)-2-(4-(4-(3-amino-6-(2-hydroxyphenyl)pyridazin-4-yl)phenyl)cyclohexane-1-carboxamido)-3,3-dimethylbutanoyl)-4-hydroxy-N-((S)-1-(4-(4-methylthiazol-5-yl)phenyl)ethyl)pyrrolidine-2-carboxamide], for which the Percent SMARCA4 degradation at 0.1 µM in assay [1] is 45%. In assay [2], the “Percent degradation SMARCA2” value is listed as 97%. This compound returned a half-maximal effective concentration (EC50) in assay [3] of less than 10 nM.
The corresponding values for `Cc1ncsc1-c1ccc([C@H](C)NC(=O)[C@@H]2C[C@@H](O)CN2C(=O)[C@@H](NC(=O)Cn2ccc(-c3ccc(-c4cc(-c5ccccc5O)nnc4N)cc3)c2)C(C)(C)C)cc1` [Compound 50, (2S,4R)-1-((S)-2-(2-(3-(4-(3-amino-6-(2-hydroxyphenyl)pyridazin-4-yl)phenyl)-1H-pyrrol-1-yl)acetamido)-3,3-dimethylbutanoyl)-4-hydroxy-N-((S)-1-(4-(4-methylthiazol-5-yl)phenyl)ethyl)pyrrolidine-2-carboxamide] are 0%, 85% and more than 100 nM.
With `Cc1ncsc1-c1ccc([C@H](C)NC(=O)[C@@H]2C[C@@H](O)CN2C(=O)[C@@H](NC(=O)CN2CCC(c3ccc(-c4cc(-c5cc(F)ccc5O)nnc4N)cc3)CC2)C(C)(C)C)cc1` [Compound 31, (2S,4R)-1-((S)-2-(2-(4-(4-(3-amino-6-(5-fluoro-2-hydroxyphenyl)pyridazin-4-yl)phenyl)piperidin-1-yl)acetamido)-3,3-dimethylbutanoyl)-4-hydroxy-N-((S)-1-(4-(4-methylthiazol-5-yl)phenyl)ethyl)pyrrolidine-2-carboxamide], in assay [1], the Percent SMARCA4 degradation at 0.1 µM is 90%. Moreover, in assay [2], the “Percent degradation SMARCA2” value is on record as 99%. In addition, in assay [3], the concentration for a half-maximal effect (EC50) is 10 to 100 nM.
